Test results: patent publication US8637038B2, “Methods for inhibiting allograft rejection” (Rigel Pharmaceuticals, Inc., priority 2011, dated 2014)

Assays:
Type in all cases: in vivo, rat
[1] = test system: Lew recipients of heterotopic BN heart transplants; assay: Five-day heart allograft study: H+E histology, ISHLT rejection classification; settings: HD (Compound I 60 mg/kg BID, Compound III 20 mg/kg BID, Tac 4 mg/kg QD); five days after transplantation
Description: Male Brown Norway (BN) and Lewis (Lew) rats weighing 350 g were purchased from Harlan (Indianapolis, Ind.) and were housed under conventional conditions. All animals were fed standard rat chow and water ad libitum and received humane care in compliance with the Principles of Laboratory Animal Care formulated by the National Society for Medical Research and the Guide for the care and Use of Laboratory Animals published by the National Institutes of Health (National Institutes of Health publication No. 85-23, revised 1985). Allogeneic (BN-to-Lew) and syngeneic (Lew-to-Lew) heterotopic heart transplantations were performed as described previously (Ono et al., J. Thorac. Cardiovasc. Surg. 57:225-229, 1969). In brief, rats were anaesthetized using 2% isoflurane. The donor received an intravenous bolus of 500 I.U. heparin. Cardiac arrest was achieved using 20 ml Bretschneider solution (Custodiol, Dr. F. Koehler Chemie, Bensheim, Germany). […] Heart-beating score was assessed directly after transplantation for each animal from score 0 (no palpable contraction) to 4 (strong and regular contraction). Only animals with beating scores of 4 were included into the study. Compound I and Compound III were provided by Rigel (South San Francisco, Calif.) and Tacrolimus was provided by Astellas (Munich, Germany). All drugs were administrated orally each in two different concentrations: Compound I LD (15 mg/kg BID; n=6) and HD (60 mg/kg BID; n=6); […] Administration of all drugs was performed every day at the same time points. Tacrolimus was applied only once a day (QD) every 24 hours. During administration of Compound I (BID) and Compound III (BID) a 12 hour pause was kept in between each drug application. Lew recipients of heterotopic BN heart transplants were randomly assigned to their group. […] An untreated syngeneic transplant group Lew-Lew was generated as control. Grafts were recovered five days after transplantation and fixed in 4% paraformaldehyde (Science Services, Munich, Germany), dehydrated and embedded in paraffin. […] Waldeck, Carl Roth GmbH, Munster, Germany) and examined by standard light microscopy. The extent of acute cardiac graft rejection in H+E staining was examined by an experienced pathologist according to the 2004 ISHLT working formulation (Stewart et al., J. Heart Lung Transplant. 24:1710-1720, 2005).

[2] = test system: Lew recipients of heterotopic BN heart transplants; assay: Five-day heart allograft study: ELISPOT (IFN-γ, IL-4, IL-17) of recipient splenocytes; settings: LD groups (Compound I 15 mg/kg BID, Compound III 5 mg/kg BID, Tac 1 mg/kg QD); five days
Protocol: (§1) Compound I and Compound III were provided by Rigel (South San Francisco, Calif.) and Tacrolimus was provided by Astellas (Munich, Germany). All drugs were administrated orally each in two different concentrations: Compound I LD (15 mg/kg BID; n=6) and HD (60 mg/kg BID; n=6); Compound III LD (5 mg/kg BID; n=6) and HD (20 mg/kg BID; n=6); Tac LD (1 mg/kg QD; n=6) and HD (4 mg/kg QD; n=6). Administration of all drugs was performed every day at the same time points. Tacrolimus was applied only once a day (QD) every 24 hours. During administration of Compound I (BID) and Compound III (BID) a 12 hour pause was kept in between each drug application.
(§2) Lew recipients of heterotopic BN heart transplants were randomly assigned to their group. Animals were either left untreated (groups 1 and 2; see Table 1,5-day study) or received their group specific medication (groups 3-8; see Table 1,5-day study) by oral application. An untreated syngeneic transplant group Lew-Lew was generated as control.
Lymphocytes were isolated from freshly harvested spleens. ELISPOT assays with 1×10^7/ml mitomycin-inhibited BN splenocytes and 1×10^6/ml Lew splenocytes were performed according to the manufacturer's protocol (BD Biosciences). 96-well plates were coated with IFN-γ, IL-17, and IL-4 to assess T helper cell (Th)1-, Th17-, and Th2-responses independently. All assays were performed in quadruplicates. Spots were automatically enumerated using an ELISPOT plate reader (CTL, Cincinnati, Ohio) for scanning and analyzing.

[3] = test system: Lew recipients of heterotopic BN heart transplants; assay: Five-day heart allograft study: donor-specific IgM antibodies by flow cytometry; settings: LD and HD groups; five days; p<0.001
Protocol: as §1, §2
Donor splenocytes were isolated and erythrocytes were lysed using the ACK buffer (Lonza, Walkersville, Md.). Sera from recipient rats were decomplemented and equal amounts of sera and splenocyte suspensions (5×10^6 cells/ml) were incubated for 30 minutes at room temperature. IgM antibodies were stained by incubation of the cells with a conjugated mouse antibody specific for the Fc-portion of rat IgM (Monoclonal Anti-rat IGM, Clone RTM-32, Sigma) followed by incubation with a 488-conjugated secondary antibody (Invitrogen). Cells were washed with PBS, fixed with 2% paraformaldehyde (Science Services), and analyzed on a FACSCalibur™ system (BD Biosciences). Fluorescence data were expressed as mean fluorescence intensity (MFI) using Flowjo software (Tree Star, Inc., Ashland, Oreg.).

[4] = test system: BN-to-Lew heterotopic heart transplantations; assay: Graft survival study after 10-day treatment, with combination index; settings: no medication 7±0 days
Description: Male Brown Norway (BN) and Lewis (Lew) rats weighing 350 g were purchased from Harlan (Indianapolis, Ind.) and were housed under conventional conditions. All animals were fed standard rat chow and water ad libitum and received humane care in compliance with the Principles of Laboratory Animal Care formulated by the National Society for Medical Research and the Guide for the care and Use of Laboratory Animals published by the National Institutes of Health (National Institutes of Health publication No. 85-23, revised 1985). Allogeneic (BN-to-Lew) and syngeneic (Lew-to-Lew) heterotopic heart transplantations were performed as described previously (Ono et al., J. Thorac. Cardiovasc. Surg. 57:225-229, 1969). In brief, rats were anaesthetized using 2% isoflurane. The donor received an intravenous bolus of 500 I.U. heparin. Cardiac arrest was achieved using 20 ml Bretschneider solution (Custodiol, Dr. F. Koehler Chemie, Bensheim, Germany). […] Heart-beating score was assessed directly after transplantation for each animal from score 0 (no palpable contraction) to 4 (strong and regular contraction). Only animals with beating scores of 4 were included into the study.
as §1
BN-to-Lew heterotopic heart transplantations were performed. Recipient animals were treated for 10 days according to Table 1 (10 day survival study group) and graft survival was monitored by daily palpation of the beating donor heart through the abdominal wall. Scoring was assessed according to heart-beating score of 0 to 4. The time of rejection was defined as the last day of palpable cardiac contractions and graft rejection was confirmed by laparotomy.
The median-effect principle of Chou (in Synergism and Antagonism in Chemotherapy, Chou and Rideout, eds, pp. 61-102, Academic Press, 1991) is based on the premise that the effect of each agent is related to its dose and, therefore, can be calculated using the following equation: (fa/fu)=(D/Dm)m, where fa and fu represent the fractions of the system that are affected (% inhibition or rather days of survival beyond controls) and unaffected (1−fa), respectively, by the drug at dose D. Full protection (fa=1) is defined as at least a 28-day survival of allografts. Dm is the dose required for 50% inhibition (ED50), the median effect (m) is a coefficient that describes the sigmoidicy of the dose-effect curve. The interaction between two drugs is assessed by the combination index (CI) equation for the doses to achieve x % inhibition:
[formula] for the mutually nonexclusive case, where each drug has a different mode of action. A computer software program was used to determine the dose-effect parameters (Dm, m, and r), and the CI values (CalcuSyn, Biosoft, Cambridge, United Kingdom).
Graft survival was monitored by daily palpation of the beating donor heart through the abdominal wall and treatment of animals was stopped after 10 days.

`C=CC[C@@H]1/C=C(\C)C[C@H](C)C[C@H](OC)[C@H]2O[C@@](O)(C(=O)C(=O)N3CCCC[C@H]3C(=O)O[C@H](/C(C)=C/[C@@H]3CC[C@@H](O)[C@H](OC)C3)[C@H](C)[C@@H](O)CC1=O)[C@H](C)C[C@@H]2OC` [Tac, Tacrolimus, reference compound] was tested, and the “hearts with ISHLT score of 1” value [1] was 67%, the “hearts with ISHLT score of 2” value [1] was 33% and the “IFN-γ spot frequency (ELISPOT) compared to no medication group” value [2] was “no significant reduction”. The “donor-specific IgM antibodies (DSA) vs. no medication” value [3] was “significant suppression”, the “graft survival, mean” value ([4]; HD (Compound I 60 mg/kg BID, Compound III 20 mg/kg BID, Tac 4 mg/kg QD) for 10 days) was 20 ± 3 days and the “graft survival, mean” value ([4]; LD (Compound I 15 mg/kg BID, Compound III 5 mg/kg BID, Tac 1 mg/kg QD) for 10 days) was 13 ± 2 days.
